How the values were obtained:
[1] = target: T1, human TLR7 (Homo sapiens, UniProt Q9NYK1); test: Toll-Like Receptor (TLR) screening assay, TLR7; assay type: cell-based; details: 10 μM
T1 sequence (Q9NYK1 27-1049): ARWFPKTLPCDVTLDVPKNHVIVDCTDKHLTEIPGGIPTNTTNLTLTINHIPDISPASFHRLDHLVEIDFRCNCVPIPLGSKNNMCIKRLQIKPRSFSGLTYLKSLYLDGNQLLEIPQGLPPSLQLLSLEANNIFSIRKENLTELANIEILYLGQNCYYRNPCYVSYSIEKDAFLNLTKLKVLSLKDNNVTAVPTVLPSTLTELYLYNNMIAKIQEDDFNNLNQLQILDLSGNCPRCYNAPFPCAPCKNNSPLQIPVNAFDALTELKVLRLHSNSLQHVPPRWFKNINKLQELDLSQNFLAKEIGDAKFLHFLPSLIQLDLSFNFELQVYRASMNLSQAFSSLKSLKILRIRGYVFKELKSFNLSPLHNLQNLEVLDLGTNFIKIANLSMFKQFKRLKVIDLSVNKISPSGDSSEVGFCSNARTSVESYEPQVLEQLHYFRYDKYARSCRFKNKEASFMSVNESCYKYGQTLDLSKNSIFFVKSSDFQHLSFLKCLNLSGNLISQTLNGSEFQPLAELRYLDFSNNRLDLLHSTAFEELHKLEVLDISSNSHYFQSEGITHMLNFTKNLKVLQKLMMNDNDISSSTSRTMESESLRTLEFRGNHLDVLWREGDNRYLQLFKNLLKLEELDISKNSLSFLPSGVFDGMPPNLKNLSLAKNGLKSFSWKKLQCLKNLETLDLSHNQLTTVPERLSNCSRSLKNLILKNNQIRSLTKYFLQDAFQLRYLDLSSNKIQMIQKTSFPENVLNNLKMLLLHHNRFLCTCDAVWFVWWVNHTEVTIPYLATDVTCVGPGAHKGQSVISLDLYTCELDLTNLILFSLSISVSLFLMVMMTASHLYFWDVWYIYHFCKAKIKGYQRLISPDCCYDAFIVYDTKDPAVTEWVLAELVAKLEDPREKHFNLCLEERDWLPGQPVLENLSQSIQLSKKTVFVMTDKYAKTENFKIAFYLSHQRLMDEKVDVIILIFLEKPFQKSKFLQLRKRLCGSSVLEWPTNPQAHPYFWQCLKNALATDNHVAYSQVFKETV

[2] = target: human TLR 2 (Homo sapiens, UniProt O60603); test: Toll-Like Receptor (TLR) screening assay, TLR2; assay type: cell-based; details: 10 μM; control HKLM
Sequence of human TLR 2 (O60603 21-784): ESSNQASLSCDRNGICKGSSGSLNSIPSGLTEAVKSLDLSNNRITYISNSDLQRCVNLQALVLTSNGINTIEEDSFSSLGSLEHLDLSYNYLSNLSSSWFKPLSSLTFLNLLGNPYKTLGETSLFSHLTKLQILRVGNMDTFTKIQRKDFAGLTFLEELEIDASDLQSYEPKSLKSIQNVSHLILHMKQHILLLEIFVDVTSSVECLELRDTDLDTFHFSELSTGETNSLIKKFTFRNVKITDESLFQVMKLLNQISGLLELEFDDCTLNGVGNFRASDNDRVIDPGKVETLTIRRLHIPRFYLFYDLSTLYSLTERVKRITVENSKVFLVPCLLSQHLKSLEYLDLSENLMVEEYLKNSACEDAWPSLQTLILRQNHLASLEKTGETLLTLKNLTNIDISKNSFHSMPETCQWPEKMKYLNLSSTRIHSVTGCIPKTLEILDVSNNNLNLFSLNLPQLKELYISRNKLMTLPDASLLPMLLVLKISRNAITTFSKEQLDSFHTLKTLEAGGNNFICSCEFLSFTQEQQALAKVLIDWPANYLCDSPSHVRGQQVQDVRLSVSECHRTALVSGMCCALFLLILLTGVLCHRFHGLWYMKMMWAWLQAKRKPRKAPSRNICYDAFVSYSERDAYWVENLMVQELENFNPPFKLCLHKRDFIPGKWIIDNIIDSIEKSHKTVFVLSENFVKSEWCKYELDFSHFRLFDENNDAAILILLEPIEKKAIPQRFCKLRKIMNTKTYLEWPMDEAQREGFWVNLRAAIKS

[3] = target: CXCR4 receptor (Homo sapiens, UniProt P61073); test: binding of radiolabeled SDF-1α to the CXCR4 receptor; details: 10 μM
Sequence of CXCR4 receptor (P61073 whole entry): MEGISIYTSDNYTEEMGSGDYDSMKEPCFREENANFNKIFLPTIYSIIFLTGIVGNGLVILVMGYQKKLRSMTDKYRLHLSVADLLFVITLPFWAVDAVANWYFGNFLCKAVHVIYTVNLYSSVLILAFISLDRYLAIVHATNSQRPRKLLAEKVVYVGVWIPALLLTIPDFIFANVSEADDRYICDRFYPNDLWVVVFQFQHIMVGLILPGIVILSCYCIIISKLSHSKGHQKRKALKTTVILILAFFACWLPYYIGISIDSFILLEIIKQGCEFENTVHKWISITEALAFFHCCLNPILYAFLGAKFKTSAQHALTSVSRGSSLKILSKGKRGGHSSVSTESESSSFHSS
Experimental: Alternative mechanisms might also be responsible for the observed immune inducing effects of PBT. The FDA-approved compound, plerixafor (also known as AMD3100), is used as a hematopoietic stem cell mobilizer for use in combination with granulocyte-colony stimulating factor (G-CSF) for peripheral blood collection and subsequent autologous transplantation in patients with non-Hodgkin's lymphoma and multiple myeloma. […] We tested the effect of 10 μM AMXT 1501 on the binding of radiolabeled SDF-1α to the CXCR4 receptor and found no inhibition. […] Since an interaction between AMXT 1501 and the CXCR4 receptor was not observed, a polyamine-dependant mechanism of immune-suppression is maintained.

[4] = target: T2, human TLR9 (Homo sapiens, UniProt Q9NR96); test: Toll-Like Receptor (TLR) screening assay, TLR9; assay type: cell-based; details: 10 μM
T2 sequence (Q9NR96 26-1032): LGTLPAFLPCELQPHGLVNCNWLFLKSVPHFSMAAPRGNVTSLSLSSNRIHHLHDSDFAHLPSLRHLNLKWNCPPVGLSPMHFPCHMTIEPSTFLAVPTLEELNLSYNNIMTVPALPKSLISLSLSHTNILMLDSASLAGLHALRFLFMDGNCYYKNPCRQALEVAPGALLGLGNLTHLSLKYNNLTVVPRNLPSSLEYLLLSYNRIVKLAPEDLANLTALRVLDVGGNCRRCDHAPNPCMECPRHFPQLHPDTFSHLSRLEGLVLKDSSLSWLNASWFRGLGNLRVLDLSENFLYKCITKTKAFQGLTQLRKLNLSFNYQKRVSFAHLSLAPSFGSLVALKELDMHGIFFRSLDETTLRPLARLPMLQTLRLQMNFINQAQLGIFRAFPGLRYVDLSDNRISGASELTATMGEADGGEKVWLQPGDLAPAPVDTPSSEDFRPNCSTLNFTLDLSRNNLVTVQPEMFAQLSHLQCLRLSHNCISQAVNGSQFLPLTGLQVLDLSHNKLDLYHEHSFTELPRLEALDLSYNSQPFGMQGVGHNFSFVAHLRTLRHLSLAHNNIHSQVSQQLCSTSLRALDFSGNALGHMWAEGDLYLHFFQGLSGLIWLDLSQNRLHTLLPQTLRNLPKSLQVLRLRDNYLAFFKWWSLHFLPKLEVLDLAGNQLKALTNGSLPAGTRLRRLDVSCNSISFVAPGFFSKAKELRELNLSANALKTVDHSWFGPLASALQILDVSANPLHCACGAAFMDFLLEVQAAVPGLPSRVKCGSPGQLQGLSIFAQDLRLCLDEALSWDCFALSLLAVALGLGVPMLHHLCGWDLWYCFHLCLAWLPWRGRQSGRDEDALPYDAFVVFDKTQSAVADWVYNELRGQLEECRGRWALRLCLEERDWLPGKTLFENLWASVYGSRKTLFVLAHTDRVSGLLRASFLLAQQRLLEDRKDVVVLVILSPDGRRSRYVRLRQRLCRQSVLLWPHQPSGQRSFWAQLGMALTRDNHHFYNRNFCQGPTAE

With CCCCCCCCCCCCCCCC(=O)NCCCC[C@@H](N)C(=O)NCCCNCCCCNCCCN [AMXT 1501, D-Lys(C16acyl)-Spm] the “activity on TLR7” value [1] was “no significant activity”, the “stimulatory effect on TLR2” value [2] was 19 % of control and the “inhibition of radiolabeled SDF-1α binding” value [3] was “no inhibition”. For the same compound, the “activity on TLR9” value [4] was “no significant activity”.
